Results taken from patent US11072592B2, “Small molecules that enable cartilage rejuvenation” (The Regents of the University of California, priority 2015, dated 2021).
Entries after “also recorded” stand apart in the source; their conditions may differ.

Key:
Format in all cases: cell-based
pSTAT3 and MYC [1] = test: Western blot of pSTAT3 and MYC in adult pig articular chondrocytes; conditions: for levels of MYC / levels of pSTAT3: adult pig articular chondrocytes, treated vs untreated, relative to histone H3
Text: (§1) Only early passages of chondrocytes (passage 0-2) were used for experimentation to avoid de-differentiation and loss of cartilage phenotype (Wu et al., 2014). Cartilage explants were made using 1, 2 or 8 mm biopsy punch and wet weight of each explant determined prior to experimentation. For cell isolation cartilage tissue was digested as described previously (Wu et al., 2015). Postnatal paraffin embedded joint and growth plate specimens were kindly donated by Dr Marcel Karperien from the University of Twente (Netherlands) and Dr Nick Bernthal from University of California Los Angeles. All donated material was anonymous and carried no personal identifiers. Cell culture reagents were purchased from Life Technologies, Inc. (Grand Island, N.Y.). Growth factors LIF, OSM, IL-6, TNF-α, IL-1β were purchased from Life Technologies, Inc (Grand Island, N.Y.). STATTIC, 10058-F4, SCl44 hydrochloride, and CP-690550 were purchased from Sigma Aldrich (St. Louis, Mo.). RCGD 423 (N-(4-Bromophenyl)-4-phenyl-1,3-thiazol-2-amine) was synthesized and provided by MolPort (Riga, Latvia). Fetal, adult and pig chondrocytes were cultured in DMEM F12 medium containing 10% (vol/vol) fetal bovine serum and 1% Penicillin-Streptomycin (vol/vol) at 37° C. in a humidified atmosphere of 95% aid and 5% CO2. Media was replenished with DMEM F12 medium containing 1% (vol/vol) fetal bovine serum and 1% Penicillin-Streptomycin (vol/vol) once treatments were added. For 3-dimensional (3D) cell cultures adult human articular chondrocytes were incubated with or without RCGD 423 using 10% solution of Mebiol® hydrogel from Cosmo Bio (Carlsbad, Calif.) in X-vivo 15 serum free medium from Lonza (Walkersville, Md.) as described previously (Wu et al., 2014).
(§2) Treated and non-treated ells were lysed in RIPA Lysis and Extraction Buffer (Pierce, Rockford, Ill.) containing protease inhibitors (Pierce) followed by sonication with a 15-second pulse at a power output of 2 using the VirSonic 100 (SP Industries Company, Warminster, Pa.). Protein concentrations were determined by BCA protein assay (Pierce). Proteins were resolved with SDS-PAGE utilizing 4-15% Mini-PROTEAN TGX Precast Gels and transferred to Trans-Blot Turbo Transfer Packs with a 0.2-μm pore-size nitrocellulose membrane. The SDS-PAGE running buffer, 4-15% Mini-PROTEAN TGX Precast Gels, Trans-Blot Turbo Transfer Packs with a 0.2-μm pore-size nitrocellulose membrane were purchased from Biorad (Hercules, Calif.). Nitrocellulose membranes were blocked in 5% nonfat milk in 0.05% (v/v) Tween 20 (PBST) (Corning, Manassas, Va.). Membranes were then incubated with primary antibodies phospho-STAT3 (#9131), MYC (#5605), NF-κB p65 (#D14E12), pAKT (#9272) Histone 3 (#9715) from Cell Signaling, (Danvers, Mass.); MEK1/2 (ab70613) and p38 (ab795) from Abcam (Cambridge, Mass.) overnight. After washing in PBS containing 0.05% (v/v) Tween 20 (PBST), membranes were incubated with Goat anti-Rabbit IgG (H+L) Secondary Antibody (Thermo Scientific Rockford, Ill.). After washing, membranes were developed with the Clarity Western ECL Blotting Substrate (Hercules, Calif.).

[2] = test system: MAPK, AKT, NF-κB pathways; test: Western blot of MAPK, AKT and NF-κB signaling in adult pig articular chondrocytes; conditions: 24 hours
Method: (§3) FIGS. 30A-30B. […] (FIG. 30A) Adult pig articular chondrocytes were cultured for 24 hours with the indicated cytokines or RCGD 423 and the levels of pSTAT3 and MYC were measured with respect to histone H3. Representative data for other proteins in the MAPK (p38 and MEK1/2), AKT (phospho-AKT; pAKT) or NF-KB (NF-KB p65) are also shown. (FIG. 30B) Levels of transcription of genes indicative of a catabolic response were determined via quantitative PCR in adult pig articular chondrocytes treated with OSM, IL-6, TNF-α, LIF or RCGD 423. Data are represented at mean±SD.
(§4) Cartilage degeneration is generally considered a feed-forward process, in which small losses of chondrocytes result in microenvironmental changes including induction of an inflammatory response and other pro-catabolic events (Hunziker, 2002). In turn, these alterations in the joint milieu promote production of matrix degrading proteins including MMPs (collagenases) and proteins of the ADAMTS family (aggrecanases). LIF has been implicated in promoting this cycle of matrix destruction during the pathogenesis of osteoarthritis (Hui et al., 2000; Lotz et al., 1992), although its role in this process has been controversial. In order to better understand the mechanism of action of LIF, RCGD 423 and known pro-inflammatory cytokines in the promotion of degeneration, we stimulated adult pig articular chondrocytes with these molecules and quantitated the levels of activated downstream proteins that mediate the cellular signaling response (FIG. 30A).
as §2

[3] = test system: MMP13, ADAMTS4 and ADAMTS5; test: Quantitative PCR of catabolic genes in adult pig articular chondrocytes
Method: as §3, §4
Total RNA was extracted using RNeasy Micro Kit (QIAGEN, Valencia, Calif.) according to the manufacturer's protocol. Quantitative reverse transcription PCR was performed using Bio-Rad T100 Thermal Cycler (Bio-Rad, Hercules, Calif.). Primer sequences are available upon request.

pSTAT3 and MYC [4] = test: Western blot of pSTAT3 and MYC in adult human articular chondrocytes; conditions: for levels of MYC / levels of pSTAT3: adult human articular cartilage/chondrocytes, treated vs untreated, relative to histone H3
Text: as §1, §2

[5] = pig adult articular chondrocytes, 1 μM
[6] = 48 hours after withdrawal (data not shown)
[7] = human adult articular chondrocytes, 1 μM

Molecule	levels of MYC (pSTAT3 and MYC [1])	levels of pSTAT3 (pSTAT3 and MYC [1])	activation of AKT [2]	activation of the MAPK pathway [2]	transcription of matrix degrading enzymes (MMP13, ADAMTS4 and ADAMTS5) [3]	levels of MYC (pSTAT3 and MYC [4])	levels of pSTAT3 (pSTAT3 and MYC [4])	levels of c-MYC (pSTAT3 and MYC [1]; [5])	levels of p-STAT3 (pSTAT3 and MYC [1]; [5])	NF-κB protein [2]	specificity and selectivity of effect for p-STAT3 and c-MYC (pSTAT3 and MYC [4])	protein level of c-MYC after withdrawal (pSTAT3 and MYC [4]; [6])	protein level of p-STAT-3 after withdrawal (pSTAT3 and MYC [4]; [6])	levels of c-MYC (pSTAT3 and MYC [4]; [7])	levels of p-STAT3 (pSTAT3 and MYC [4]; [7])
LIF: interleukin 6 (IL-6)-class cytokine	increase	increase	stimulated the activation; also recorded: strong activation	weaker response	neither cytokine resulted in substantial transcriptional upregulation	large increases; also recorded: robustly increased	large increases; also recorded: robustly increased	–	–	–	–	–	–	–	–
Brc1ccc(Nc2nc(-c3ccccc3)cs2)cc1 [RCGD 423, N-(4-Bromophenyl)-4-phenyl-1,3-thiazol-2-amine]	strong increases	strong increases	did not activate; also recorded: no activation	weakly activating	no upregulation; also recorded: does not promote catabolism	robustly increased	robustly increased	elevated	elevated	did not activate AKT or stabilize	highly specific and selective	decreased	decreased	elevated	elevated
